Assay results taken from ChEMBL document CHEMBL1135858, “Vitamin D(3): synthesis of seco-C-9,11-bisnor-17-methyl-1 alpha,25-dihydroxyvitamin D(3) analogues” (2002).

Legend:
HL-60 = test: Percent inhibition against HL-60 cell line (50% dose response), relative to 1-alpha,25 (OH)2D3 (100% activity) determined in vitro; format: functional, Homo sapiens; set-up: scale not given: the % may be the effect or the level left
[1] = target: T1, Vitamin D3 receptor (Sus scrofa) (UniProt A3RGC1); test: (§1) Displacement of 50% binding of [3H]alpha,25 (OH)2D3 from pig intestinal mucosa Vitamin D3 receptor; format: tissue-based
T1 sequence (whole entry): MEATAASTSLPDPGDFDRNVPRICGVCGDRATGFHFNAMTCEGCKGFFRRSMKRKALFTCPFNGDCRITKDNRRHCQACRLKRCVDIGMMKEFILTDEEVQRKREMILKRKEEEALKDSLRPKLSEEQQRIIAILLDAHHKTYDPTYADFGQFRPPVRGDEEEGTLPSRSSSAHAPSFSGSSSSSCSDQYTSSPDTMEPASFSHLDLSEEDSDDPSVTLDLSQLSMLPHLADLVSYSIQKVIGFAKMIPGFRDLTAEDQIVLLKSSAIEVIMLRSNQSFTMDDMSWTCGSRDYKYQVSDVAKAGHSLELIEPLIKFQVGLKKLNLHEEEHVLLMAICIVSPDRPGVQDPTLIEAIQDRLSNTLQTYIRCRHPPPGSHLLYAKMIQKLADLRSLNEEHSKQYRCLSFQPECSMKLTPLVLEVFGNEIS

Mus musculus = test: Calcemic effect in vivo in vitamin D-replete normal NMRI mice by daily intraperitoneal injections of compound and 1-alpha,25 (OH)2D3 for 7 consecutive days; format: functional
MCF7 = test: Percent inhibition against MCF-7 cell line (50% dose response), relative to 1-alpha,25 (OH)2D3 (100% activity) determined in vitro; format: functional, Homo sapiens; set-up: scale not given: the % may be the effect or the level left
Keratinocyte = test: Percent inhibition against Keratinocytes cell line (50% dose response), relative to 1-alpha,25 (OH)2D3 (100% activity) determined in vitro; format: functional, Homo sapiens; set-up: scale not given: the % may be the effect or the level left
[2] = target: T1, Vitamin D3 receptor (Sus scrofa); test: as §1

Relative affinity [1] | Relative affinity [2] | Structure (SMILES) | Activity (HL-60) [%] | Activity (Mus musculus) [%] | Activity (MCF7) [%] | Activity (Keratinocyte) [%]
80 | – | C=C1C(=CC=C[C@@H]2CC[C@](C)([C@@H](C)CC(C)CC#CC(O)(CC)CC)C2(C)C)C[C@@H](O)C[C@@H]1O (stereo not given in full) | 600 | 25 | 750 | 800
50 | – | CC(CC#CC(O)(C(F)(F)F)C(F)(F)F)C[C@H](C)[C@@]1(C)CC[C@@H](/C=C/C=C2C[C@@H](O)C[C@H](O)C2)C1(C)C (stereo not given in full) | 400 | 25 | 6000 | 15000
– | 50 | C=C1C(=CC=C[C@@H]2CC[C@](C)([C@H](C)CC(C)CCCC(O)(CC)CC)C2(C)C)C[C@@H](O)C[C@@H]1O (stereo not given in full) | 150 | 2 | 300 | 400
60 | – | CCC(O)(C#CCC(C)C[C@H](C)[C@@]1(C)CC[C@@H](/C=C/C=C2C[C@@H](O)C[C@H](O)C2)C1(C)C)CC (stereo not given in full) | 400 | 2 | 700 | 300
– | 10 | CCC(O)(CC)CCCC(C)C[C@@H](C)[C@@]1(C)CC[C@@H](/C=C/C=C2C[C@@H](O)C[C@H](O)C2)C1(C)C (stereo not given in full) | 80 | 0.5 | 150 | 300
– | 80 | C=C1C(=CC=C[C@@H]2CC[C@](C)([C@H](C)CC(C)CC#CC(O)(CC)CC)C2(C)C)C[C@@H](O)C[C@@H]1O (stereo not given in full) | 75 | 2 | 150 | 80
– | 30 | C=C1C(=CC=C[C@@H]2CC[C@](C)([C@H](C)CC(C)CCCC(O)(C(F)(F)F)C(F)(F)F)C2(C)C)C[C@@H](O)C[C@@H]1O (stereo not given in full) | 150 | 10 | 2500 | 2400
– | 60 | C=C1C(=CC=C[C@@H]2CC[C@](C)([C@H](C)CC(C)CC#CC(O)(C(F)(F)F)C(F)(F)F)C2(C)C)C[C@@H](O)C[C@@H]1O (stereo not given in full) | 250 | 6 | 4500 | 3600
– | 60 | C=C1C(=CC=C[C@@H]2CC[C@](C)([C@H](C)CC(C)CC#CC(C)(C)O)C2(C)C)C[C@@H](O)C[C@@H]1O (stereo not given in full) | 80 | 3 | 600 | 500
– | 9 | CC(CCCC(O)(C(F)(F)F)C(F)(F)F)C[C@@H](C)[C@@]1(C)CC[C@@H](/C=C/C=C2C[C@@H](O)C[C@H](O)C2)C1(C)C (stereo not given in full) | 100 | 50 | 600 | 1500
40 | – | CC(CC#CC(C)(C)O)C[C@H](C)[C@@]1(C)CC[C@@H](/C=C/C=C2C[C@@H](O)C[C@H](O)C2)C1(C)C (stereo not given in full) | 350 | 4 | 1300 | 2000
85 | – | C=C1C(=CC=C[C@@H]2CC[C@](C)([C@@H](C)CC(C)CCCC(O)(CC)CC)C2(C)C)C[C@@H](O)C[C@@H]1O (stereo not given in full) | 1250 | 100 | 15000 | 7000
– | 3 | CC(CCCC(C)(C)O)C[C@@H](C)[C@@]1(C)CC[C@@H](/C=C/C=C2C[C@@H](O)C[C@H](O)C2)C1(C)C (stereo not given in full) | 10 | 0.12 | 8 | 80
– | 7 | CC(CC#CC(C)(C)O)C[C@@H](C)[C@@]1(C)CC[C@@H](/C=C/C=C2C[C@@H](O)C[C@H](O)C2)C1(C)C (stereo not given in full) | 85 | 0.12 | 70 | 200
60 | – | C=C1C(=CC=C[C@@H]2CC[C@](C)([C@@H](C)CC(C)CCCC(O)(C(F)(F)F)C(F)(F)F)C2(C)C)C[C@@H](O)C[C@@H]1O (stereo not given in full) | 400 | >100 | 30000 | 20000
100 | – | C=C1/C(=C\C=C2/CCC[C@]3(C)[C@@H]([C@H](C)CCCC(C)(C)O)CC[C@@H]23)C[C@@H](O)C[C@@H]1O [CALCITRIOL] | 100 | 100 | 100 | 100
75 | – | C=C1C(=CC=C[C@@H]2CC[C@](C)([C@@H](C)CC(C)CC#CC(C)(C)O)C2(C)C)C[C@@H](O)C[C@@H]1O (stereo not given in full) | 800 | 3 | 1250 | 3250
40 | – | CC(CCCC(C)(C)O)C[C@H](C)[C@@]1(C)CC[C@@H](/C=C/C=C2C[C@@H](O)C[C@H](O)C2)C1(C)C (stereo not given in full) | 600 | 0.5 | 400 | 600
60 | – | CCC(O)(CC)CCCC(C)C[C@H](C)[C@@]1(C)CC[C@@H](/C=C/C=C2C[C@@H](O)C[C@H](O)C2)C1(C)C (stereo not given in full) | 500 | 20 | 7500 | 7000
– | 6 | C=C1C(=CC=C[C@@H]2CC[C@](C)([C@H](C)CC(C)CCCC(C)(C)O)C2(C)C)C[C@@H](O)C[C@@H]1O (stereo not given in full) | 50 | 0.25 | 60 | 100
– | 85 | C=C1C(=CC=C[C@@H]2CC[C@](C)([C@@H](C)CC(C)CCCC(C)(C)O)C2(C)C)C[C@@H](O)C[C@@H]1O (stereo not given in full) | 800 | 8 | 2000 | 1000
75 | – | C=C1C(=CC=C[C@@H]2CC[C@](C)([C@@H](C)CC(C)CC#CC(O)(C(F)(F)F)C(F)(F)F)C2(C)C)C[C@@H](O)C[C@@H]1O (stereo not given in full) | 1250 | 25 | 8000 | 15000
– | 50 | CC(CC#CC(O)(C(F)(F)F)C(F)(F)F)C[C@@H](C)[C@@]1(C)CC[C@@H](/C=C/C=C2C[C@@H](O)C[C@H](O)C2)C1(C)C (stereo not given in full) | 300 | 3 | 1500 | 3000
– | 50 | CCC(O)(C#CCC(C)C[C@@H](C)[C@@]1(C)CC[C@@H](/C=C/C=C2C[C@@H](O)C[C@H](O)C2)C1(C)C)CC (stereo not given in full) | 50 | 0.25 | 85 | 85
40 | – | CC(CCCC(O)(C(F)(F)F)C(F)(F)F)C[C@H](C)[C@@]1(C)CC[C@@H](/C=C/C=C2C[C@@H](O)C[C@H](O)C2)C1(C)C (stereo not given in full) | 400 | 100 | 20000 | 16000
